Source: patent US20160106102A1, “KNOWN AND NEW HETEROCYCLIC COMPOUNDS AS PEST CONTROL AGENTS” (BAYER CROPSCIENCE AKTIENGESELLSCHAFT, priority 2013, published 2016)
Like-named read-outs stand apart in the source and are kept apart here.

Tests used:
[1] = log P determination by LC-MS in the acidic range; type: physicochemical; conditions: for log P (acid): LC-MS in the acidic range
Description: The LC-MS determination in the acidic range is effected at pH 2.7 using 0.1% aqueous formic acid and acetonitrile (contains 0.1% formic acid) as eluents, linear gradient from 10% acetonitrile to 95% acetonitrile. Alternatively, the determination is effected in the acidic range at pH 2.3 using 0.1% aqueous phosphoric acid and acetonitrile as eluents; linear gradient from 10% acetonitrile to 95% acetonitrile.

Myzus persicae [2] = experiment: Myzus persicae - sachet test; type: in vivo; conditions: 100% = all animals killed
Summary of the method: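 Green peach aphids feed through a sealed sachet on nutrient medium containing the water-diluted formulation (solvents: 2% N-methylpyrrolidone, 2% diacetone alcohol). Percent mortality read after the chosen time; 100% means all animals killed.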

Myzus persicae [3] = experiment: Myzus persicae - spray test; type: in vivo; conditions: application rate of 500 g/ha, after 6 days, sprayed Chinese cabbage leaf discs infested by all stages, 100% = all aphids killed
Summary of the method: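 Chinese cabbage leaf discs infested with all stages of green peach aphid sprayed with compound in acetone/DMF formulation with alkylaryl polyglycol ether emulsifier, diluted in emulsifier-containing water. Efficacy (% aphids killed) assessed after 6 days.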

[4] = application rate of 6 ppm in nutrient medium
[5] = application rate of 30 ppm in nutrient medium

Row | SMILES | log P (acid) [1] | chromatographic logP ([1]; pH 2.7, LC-MS in the acidic range, read-out: log P (acid)) | chromatographic logP ([1]; pH 2.7, values given in the synthesis examples and NMR lists, read-out: HPLC-MS: log P) | efficacy (kill in %) (Myzus persicae [2]; [4]) [%] | efficacy (kill in %) (Myzus persicae [2]; [5]) [%] | efficacy in % (Myzus persicae [3]) [%] | pest or weed control at 6 ppm (Myzus persicae [2]; Myzus persicae, application rate of 6 ppm in nutrient medium, read-out: efficacy (kill in %)) [%] | pest or weed control at 30 ppm (Myzus persicae [2]; Myzus persicae, application rate of 30 ppm in nutrient medium, read-out: efficacy (kill in %)) [%] | pest or weed control at 500 g/ha (Myzus persicae [3]; Myzus persicae, foliar, 144 h, read-out: efficacy in %) [%] | HPLC-MS: log P ([1]; values given in the synthesis examples and NMR lists)
1 | Cc1cc(NC(=O)c2cccnc2)nn1S(=O)(=O)c1ccccn1 [Compound I-1-279] | 1.51 | – | – | 100 | 100 | 90 | – | – | – | –
2 | Cc1cc(NC(=O)c2cccnc2)nn1CC1CC1(Cl)Cl (centres unmarked) [Compound I-1-237] | 1.84 | – | – | 100 | 100 | 90 | – | – | – | –
3 | Cc1cc(NC(=O)c2cccnc2)nn1-c1ncc(C(F)(F)F)cc1Cl [Compound I-1-44] | 2.2 | – | – | 100 | 100 | 100 | – | – | – | –
4 | CSCCn1nc(N(C)C(=O)c2cccnc2)cc1C [Compound I-1-187] | 1.17 | – | – | 100 | 100 | 90 | – | – | – | –
5 | COCn1nc(N(C)C(=O)c2cccnc2)cc1C [Compound I-1-178] | 0.7 | – | – | – | 80 | 100 | – | – | – | –
6 | Cc1cc(NC(=O)c2cccnc2)nn1Cc1ccccn1 [Compound I-1-6] | 0.88 | – | – | 100 | 100 | 90 | – | – | – | –
7 | Cc1cc(NC(=O)c2cccnc2)nn1-c1ncccc1Cl [Compound I-1-34] | 1.35 | – | – | 100 | 100 | 100 | – | – | – | –
8 | Cc1cc(NC(=O)c2ccc[n+]([O-])c2)nn1Cc1ncccn1 [Compound I-1-128] | 0.55 | – | – | 100 | 100 | 90 | – | – | – | –
9 | Cc1cc(NC(=O)c2cccnc2)nn1C(=O)NCC1CCCO1 (centres unmarked) [Compound I-1-311] | 1.45 | – | – | – | 100 | 90 | – | – | – | –
10 | Cc1cc(NC(=O)c2cccnc2)nn1C(=O)NCc1ccccn1 [Compound I-1-329] | 0.88 | – | – | 100 | 100 | 90 | – | – | – | –
11 | Cc1cc(NC(=O)c2cccnc2)nn1C(=O)NCC1COC(C)(C)O1 (centres unmarked) [Compound I-1-164] | 1.56 | – | – | 100 | 100 | 90 | – | – | – | –
12 | Cc1cc(NC(=O)c2cccnc2)nn1C(C)C1CC1 (centres unmarked) [Compound I-1-218] | 1.63 | – | – | 100 | 100 | 100 | – | – | – | –

Continued, in another order:

Row | log P (acid) [1] | chromatographic logP ([1]; pH 2.7, LC-MS in the acidic range, read-out: log P (acid)) | chromatographic logP ([1]; pH 2.7, values given in the synthesis examples and NMR lists, read-out: HPLC-MS: log P) | SMILES | efficacy (kill in %) (Myzus persicae [2]; [4]) [%] | efficacy (kill in %) (Myzus persicae [2]; [5]) [%] | efficacy in % (Myzus persicae [3]) [%] | pest or weed control at 6 ppm (Myzus persicae [2]; Myzus persicae, application rate of 6 ppm in nutrient medium, read-out: efficacy (kill in %)) [%] | pest or weed control at 30 ppm (Myzus persicae [2]; Myzus persicae, application rate of 30 ppm in nutrient medium, read-out: efficacy (kill in %)) [%] | pest or weed control at 500 g/ha (Myzus persicae [3]; Myzus persicae, foliar, 144 h, read-out: efficacy in %) [%] | HPLC-MS: log P ([1]; values given in the synthesis examples and NMR lists)
13 | 1.82 | – | – | Cc1cc(NC(=O)c2cccnc2)nn1Cc1ccccc1F [Compound I-1-64] | 100 | 100 | 90 | – | – | – | –
14 | – | 0.83 | 0.83 | CCS(=O)(=O)Cn1nc(NC(=O)c2cccnc2)cc1C [Compound I-1-246, N-{1-[(Ethylsulphonyl)methyl]-5-methyl-1H-pyrazol-3-yl}nicotinamide] | – | – | – | 100 | 100 | 100 | –
15 | 1.45 | – | – | Cc1cc(NC(=O)c2cccnc2)nn1CCC(F)(F)F [Compound I-1-188] | 100 | 100 | 90 | – | – | – | –
16 | 1.35 | – | – | CCOC(=O)CN(C)C(=O)Cn1nc(NC(=O)c2cncc(F)c2)cc1C [Compound I-1-61] | – | 100 | 80 | – | – | – | Compound No. I-1-61: HPLC-MS: logP = 1.35; mass (m/z): 378.1 (M + H)^+; 1H NMR (CD3CN) 1.21-1.28 (m,
17 | 1.05 | – | – | Cc1cc(NC(=O)c2cccnc2)nn1Cc1nccs1 [Compound I-1-14] | 100 | 100 | 80 | – | – | – | –
18 | 1.89 | – | – | Cc1cc(NC(=O)c2cccnc2)nn1C(=O)NCC(C)C [Compound I-1-320] | 100 | 100 | 90 | – | – | – | –
